# Reference: the OligoGym collection
# Oligonucleotides are written 5' to 3', each unit as a sugar letter and its base; * is a phosphorothioate linkage, no mark a phosphodiester; rarer units and linkages stand in square brackets, end groups in braces. Plain capitals give the bases only. d = 2'-deoxy (DNA); r = 2'-OH (RNA)
# Target: UBE2S
# Experiment: reporter assay of Huesken 2005
# Conditions: siRNA
# Note: test concentration or dose not given here.
row,Substance,normalised inhibition (eCFP-eYFP dual reporter) [%]
1,sense rUrUrCrCrCrArArCrGrArGrGrArGrGrArCrCrUdTdT / antisense rArGrGrUrCrCrUrCrCrUrCrGrUrUrGrGrGrArAdAdG,41.6
2,sense rGrGrCrCrGrCrCrUrGrCrUrCrUrUrGrGrArGrAdTdT / antisense rUrCrUrCrCrArArGrArGrCrArGrGrCrGrGrCrCdCdG,69.4
3,sense rArArGrGrUrCrUrUrUrCrCrCrArArCrGrArGrGdTdT / antisense rCrCrUrCrGrUrUrGrGrGrArArArGrArCrCrUrUdGdA,53
4,sense rCrCrUrGrArGrGrGrGrArCrCrCrCrArUrArUrGdTdT / antisense rCrArUrArUrGrGrGrGrUrCrCrCrCrUrCrArGrGdGdC,25.2
5,sense rArGrGrGrGrArCrCrCrCrArUrArUrGrCrUrGrGdTdT / antisense rCrCrArGrCrArUrArUrGrGrGrGrUrCrCrCrCrUdCdA,36.5
6,sense rUrGrGrCrGrArGrArUrCrUrGrCrGrUrCrArArCdTdT / antisense rGrUrUrGrArCrGrCrArGrArUrCrUrCrGrCrCrAdTdT,85.6
7,sense rArUrCrUrUrCrCrArCrCrCrGrArArCrGrUrGrGdTdT / antisense rCrCrArCrGrUrUrCrGrGrGrUrGrGrArArGrArUdCdT,31.6
8,sense rCrCrUrGrCrUrCrUrUrGrGrArGrArArCrUrArCdTdT / antisense rGrUrArGrUrUrCrUrCrCrArArGrArGrCrArGrGdCdG,70.7
9,sense rUrCrCrCrCrArCrCrCrArArGrGrGrCrUrArCrUdTdT / antisense rArGrUrArGrCrCrCrUrUrGrGrGrUrGrGrGrGrAdGdG,48.9
10,sense rCrArCrCrCrArArGrGrGrCrUrArCrUrUrCrCrUdTdT / antisense rArGrGrArArGrUrArGrCrCrCrUrUrGrGrGrUrGdGdG,81.5
11,sense rUrCrUrGrUrUrCrCrGrCrArUrGrArArArCrUrCdTdT / antisense rGrArGrUrUrUrCrArUrGrCrGrGrArArCrArGrAdCdC,42.3
12,sense rUrGrGrArGrGrUrCrUrGrUrUrCrCrGrCrArUrGdTdT / antisense rCrArUrGrCrGrGrArArCrArGrArCrCrUrCrCrAdGdC,58.5
13,sense rCrCrCrArArCrGrArGrGrArGrGrArCrCrUrCrAdTdT / antisense rUrGrArGrGrUrCrCrUrCrCrUrCrGrUrUrGrGrGdAdA,54
14,sense rGrCrCrArGrUrGrGrCrArCrUrGrArArGrCrUrUdTdT / antisense rArArGrCrUrUrCrArGrUrGrCrCrArCrUrGrGrCdCdA,57.9
15,sense rArCrArCrGrUrArCrUrGrCrUrGrArCrCrArUrCdTdT / antisense rGrArUrGrGrUrCrArGrCrArGrUrArCrGrUrGrUdCdG,59.3
16,sense rCrUrGrGrCrGrArGrCrGrCrGrArUrArArGrArAdTdT / antisense rUrUrCrUrUrArUrCrGrCrGrCrUrCrGrCrCrArGdCdA,82.4
17,sense rGrCrArCrUrCrArArCrGrArGrGrArGrGrCrGrGdTdT / antisense rCrCrGrCrCrUrCrCrUrCrGrUrUrGrArGrUrGrCdAdG,48.5
18,sense rCrUrGrGrGrGrArArGrGrArCrUrUrCrCrCrUrGdTdT / antisense rCrArGrGrGrArArGrUrCrCrUrUrCrCrCrCrArGdCdA,40.4
19,sense rGrUrGrGrGrCrGrCrCrArArUrGrGrCrGrArGrAdTdT / antisense rUrCrUrCrGrCrCrArUrUrGrGrCrGrCrCrCrArCdGdT,54.4
20,sense rArCrUrGrArCrCrGrCrArGrArCrCrCrArCrCrCdTdT / antisense rGrGrGrUrGrGrGrUrCrUrGrCrGrGrUrCrArGrUdGdT,43.6
21,sense rArCrCrCrGrArUrGrGrCrArUrCrArArGrGrUrCdTdT / antisense rGrArCrCrUrUrGrArUrGrCrCrArUrCrGrGrGrUdGdG,66.4
22,sense rGrGrCrArUrCrArArGrGrUrCrUrUrUrCrCrCrAdTdT / antisense rUrGrGrGrArArArGrArCrCrUrUrGrArUrGrCrCdAdT,57.3
23,sense rGrGrGrCrCrGrArArGrCrCrGrGrUrCrGrGrGrCdTdT / antisense rGrCrCrCrGrArCrCrGrGrCrUrUrCrGrGrCrCrCdTdG,36.4
24,sense rCrUrCrCrArCrCrGrArCrCrCrUrGrGrGrGrCrCdTdT / antisense rGrGrCrCrCrCrArGrGrGrUrCrGrGrUrGrGrArGdGdA,44
25,sense rGrArGrGrArGrUrArUrGrCrArGrCrUrCrGrGrGdTdT / antisense rCrCrCrGrArGrCrUrGrCrArUrArCrUrCrCrUrCdGdT,56.7
26,sense rGrGrArGrArArCrUrArCrGrArGrGrArGrUrArUdTdT / antisense rArUrArCrUrCrCrUrCrGrUrArGrUrUrCrUrCrCdAdA,56.3

row,Substance,normalised inhibition (eCFP-eYFP dual reporter) [%]
1,sense rUrGrCrUrCrUrUrGrGrArGrArArCrUrArCrGrAdTdT / antisense rUrCrGrUrArGrUrUrCrUrCrCrArArGrArGrCrAdGdG,77.8
2,sense rArCrGrGrCrUrGrArGrCrUrGrGrGrCrArUrCrCdTdT / antisense rGrGrArUrGrCrCrCrArGrCrUrCrArGrCrCrGrUdCdC,52.3
3,sense rCrCrCrGrUrCrUrGrCrUrCrArCrArGrArGrArUdTdT / antisense rArUrCrUrCrUrGrUrGrArGrCrArGrArCrGrGrGdCdC,70.1
4,sense rGrGrUrGrArCrGrArCrArCrUrGrArCrCrGrCrAdTdT / antisense rUrGrCrGrGrUrCrArGrUrGrUrCrGrUrCrArCrCdTdC,88.7
5,sense rGrGrCrUrArCrUrUrCrCrUrGrArCrCrArArGrAdTdT / antisense rUrCrUrUrGrGrUrCrArGrGrArArGrUrArGrCrCdCdT,91.7
6,sense rArGrGrGrCrCrGrArArGrCrCrGrGrUrCrGrGrGdTdT / antisense rCrCrCrGrArCrCrGrGrCrUrUrCrGrGrCrCrCrUdGdC,49.1
7,sense rGrGrGrCrUrGrArGrGrGrUrCrCrCrArUrGrGrCdTdT / antisense rGrCrCrArUrGrGrGrArCrCrCrUrCrArGrCrCrCdCdT,45.7
8,sense rGrArGrGrGrGrCrUrGrArGrGrGrUrCrCrCrArUdTdT / antisense rArUrGrGrGrArCrCrCrUrCrArGrCrCrCrCrUrCdCdC,45
9,sense rCrArArGrUrGrCrCrUrGrCrUrGrArUrCrCrArCdTdT / antisense rGrUrGrGrArUrCrArGrCrArGrGrCrArCrUrUrGdAdT,63.5
10,sense rGrGrGrCrCrCrUrGrGrCrCrArGrUrGrGrCrArCdTdT / antisense rGrUrGrCrCrArCrUrGrGrCrCrArGrGrGrCrCrCdGdA,43
11,sense rCrCrGrArArCrGrUrGrGrGrCrGrCrCrArArUrGdTdT / antisense rCrArUrUrGrGrCrGrCrCrCrArCrGrUrUrCrGrGdGdT,44.9
12,sense rArGrUrGrCrCrUrGrCrUrGrArUrCrCrArCrCrCdTdT / antisense rGrGrGrUrGrGrArUrCrArGrCrArGrGrCrArCrUdTdG,55.7
13,sense rArGrCrCrGrGrUrCrGrGrGrCrCrCrUrGrGrCrCdTdT / antisense rGrGrCrCrArGrGrGrCrCrCrGrArCrCrGrGrCrUdTdC,43
14,sense rCrUrGrCrUrCrArCrArGrArGrArUrCrCrArCrGdTdT / antisense rCrGrUrGrGrArUrCrUrCrUrGrUrGrArGrCrArGdAdC,54.8
15,sense rArUrGrGrCrArUrCrArArGrGrUrCrUrUrUrCrCdTdT / antisense rGrGrArArArGrArCrCrUrUrGrArUrGrCrCrArUdCdG,56.5
16,sense rGrGrCrCrArArGrArArGrCrArUrGrCrUrGrGrCdTdT / antisense rGrCrCrArGrCrArUrGrCrUrUrCrUrUrGrGrCrCdAdT,57.2
17,sense rGrArCrCrCrArCrCrCrGrArUrGrGrCrArUrCrAdTdT / antisense rUrGrArUrGrCrCrArUrCrGrGrGrUrGrGrGrUrCdTdG,61.7
18,sense rCrUrUrUrCrCrCrArArCrGrArGrGrArGrGrArCdTdT / antisense rGrUrCrCrUrCrCrUrCrGrUrUrGrGrGrArArArGdAdC,33.9
19,sense rCrCrCrUrGrArGrGrGrGrArCrCrCrCrArUrArUdTdT / antisense rArUrArUrGrGrGrGrUrCrCrCrCrUrCrArGrGrGdCdC,46.5
20,sense rGrArGrUrCrUrGrCrArCrUrCrArArCrGrArGrGdTdT / antisense rCrCrUrCrGrUrUrGrArGrUrGrCrArGrArCrUrCdGdG,71.5
21,sense rCrGrCrArGrArCrCrCrArCrCrCrGrArUrGrGrCdTdT / antisense rGrCrCrArUrCrGrGrGrUrGrGrGrUrCrUrGrCrGdGdT,51.5
22,sense rGrArGrUrArUrGrCrArGrCrUrCrGrGrGrCrCrCdTdT / antisense rGrGrGrCrCrCrGrArGrCrUrGrCrArUrArCrUrCdCdT,53.4
23,sense rArCrCrCrCrArUrArUrGrCrUrGrGrArGrGrUrCdTdT / antisense rGrArCrCrUrCrCrArGrCrArUrArUrGrGrGrGrUdCdC,49.9
24,sense rGrArCrArCrGrUrArCrUrGrCrUrGrArCrCrArUdTdT / antisense rArUrGrGrUrCrArGrCrArGrUrArCrGrUrGrUrCdGdG,85.5
25,sense rCrGrUrCrArArCrGrUrGrCrUrCrArArGrArGrGdTdT / antisense rCrCrUrCrUrUrGrArGrCrArCrGrUrUrGrArCrGdCdA,63.1
26,sense rGrCrUrGrGrGrGrArArGrGrArCrUrUrCrCrCrUdTdT / antisense rArGrGrGrArArGrUrCrCrUrUrCrCrCrCrArGrCdAdG,53.9
